Measurements published in US20250268928A1, “USE OF BACTERIORUBERINS AND GLYCOSYL DERIVATIVES THEREOF TO PREVENT AND TREAT DISEASES INVOLVING DYSREGULATED PROTEIN AGGREGATION, SUCH AS NEURODEGENERATIVE DISEASES” (NAOS INSTITUTE OF LIFE SCIENCE, priority 2020, published 2025).

B1: BDNF: neurotrophin used as a positive control (protein, UniProt P23560 19-247, looked up)
Neurotrophic factor BDNF …: APMKEANIRGQGGLAYPGVRTHGTLESVNGPKAGSRGLTSLADTFEHVIEELLDEDQKVRPNEENNKDADLYTSRVMLSSQVPLEPPLLFLLEEYKNYLDAANMSMRVRRHSDPARRGELSVCDSISEWVTAADKKTAVDMSGGTVTVLEKVPVSKGQLKQYFYETKCNPMGYTKEGCRGIDKRHWNSQCRTTQSYVRALTMDSKKRIGWRFIRIDTSCVCTLTIKRGR

What was measured:
tau protein = assay: Hyperphosphorylation of tau protein (AT100) in cortical neurons damaged by glutamate; assay type: cell-based, Murine; details: % of the negative control (100%=value 0); glutamate 20 μM, 20 min; 48 hours after; SBE 1 μm, BDNF 50 ng/mL; FIG. 5
Protocol: (§1) Murine cortical neurons were cultured as described by Callizot et al., 2013. The cells were mechanically dissociated by three forced passages through the tip of a 10 mL pipette. The cells were then centrifuged at 515×g for 10 minutes at 4° C. The supernatant was removed and the pellet was taken up in a defined culture medium constituted by Neurobasal medium with a 2% solution of B27 supplement, 2 mmol/litre of L-glutamine, 2% of PS solution and 10 ng/ml of BDNF. The viable cells were counted in a Neubauer cytometer, using the trypan blue exclusion test. The cells were seeded in a density of 25000 per well in a 96-well plate pre-coated with poly-L-lysine and were cultured at 37° C. in a CO2 incubator (5%). The medium was changed every two days. The experiments were subsequently carried out on 96-well plates (n=6 culture wells per condition). In the 96 wells of each plate, only 60 were used. The wells in the first and last rows and columns were not used in order to avoid any edge effects and were filled with sterile water.
(§2) The compounds to be tested were dissolved in DMSO and the concentration was adjusted in order to ensure a concentration of DMSO in the culture medium of 0.1%. […]
(§3) For each condition, 30 images per well were automatically recorded using ImageXpress (Molecular Devices) at 20× magnification. […]
(§4) The data were expressed as a percentage of the control. […]

Murine cortical neurons = assay: Neural network integrity of cortical neurons damaged by glutamate (MAP-2 immunolabeling); assay type: cell-based; details: 48 hours after, FIG. 4
Protocol: as §1, §2, §3, §4

[1] = target: T1, Bovine alkaline phosphatase (AP) (Bos taurus, UniProt P19111); assay: APox test (protection of alkaline phosphatase against oxidative stress); assay type: biochemical; details: hydrogen peroxide/FeO4S, 15 min at 37° C.; all test concentrations (20 μM to 1.25 μM); FIG. 3
T1 construct: purchased Sigma P0114
T1 sequence (P19111 20-506 limits assumed): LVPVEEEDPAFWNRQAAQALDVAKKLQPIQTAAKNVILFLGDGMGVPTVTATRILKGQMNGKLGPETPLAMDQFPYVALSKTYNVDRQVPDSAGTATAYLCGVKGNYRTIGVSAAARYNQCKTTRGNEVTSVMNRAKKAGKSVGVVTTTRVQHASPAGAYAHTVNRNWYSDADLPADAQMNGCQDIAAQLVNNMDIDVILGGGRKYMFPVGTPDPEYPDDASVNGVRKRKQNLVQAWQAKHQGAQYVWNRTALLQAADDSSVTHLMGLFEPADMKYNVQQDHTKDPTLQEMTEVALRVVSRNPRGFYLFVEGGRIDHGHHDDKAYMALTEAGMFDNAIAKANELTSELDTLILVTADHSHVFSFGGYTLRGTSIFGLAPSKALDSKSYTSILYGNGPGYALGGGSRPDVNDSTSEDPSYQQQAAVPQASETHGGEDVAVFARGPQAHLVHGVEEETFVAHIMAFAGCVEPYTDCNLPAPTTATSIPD
Description: The aim of this study was to compare the protein protection capacities of the various components of an extract of carotenoids of the actinobacterium A. agilis separated by chromatography and HPLC. More specifically, we tested all the major fractions to assess their ability to protect the enzyme alkaline phosphatase: • against denaturing via their effect of protecting proteins from denaturing (AP-heat test) (chaperone effect) • against oxidation (APox test) (Protective effect against oxidative stress). This test is described in patent application FR 3002544 A1 and measures the ability of a substance to protect the enzyme alkaline phosphatase from oxidative stress. • Bovine alkaline phosphatase (AP) (Sigma P0114) • Liquid substrate for AP (Sigma P7998) • 30% hydrogen peroxide • FeO4S solution (30 mg in 1 mL H2O) • Flat-bottomed 96-well plate • Plate reader at 405 nm The Following were Deposited in Each Well: • 10 μL of AP diluted to 10^−5 in 10^−2M MgSO4. • 4 μL of test molecule, solvent (negative control) or H2O (positive control)+6 μL of H2O • 30 μL of a hydrogen peroxide solution (from a stock solution composed of 940 μL H2O+40 μL 30% H2O2+20 μL 10^−2 FeO4S) or 30 μL of H2O (positive control) • Allow to incubate for 15 min at 37° C. • Add 50 μL of liquid substrate. • Read OD at 405 nm for 20 min at 37° C. […]

[2] = target: T1, Bovine alkaline phosphatase (AP); assay: AP-heat test (protection of alkaline phosphatase against heat denaturing, chaperone effect); assay type: biochemical; details: 55° C. for 1 hour; all test concentrations (20 μM, 10 μM, 5 μM, 2.5 μM, 1.25 μM); FIG. 2
Description: The aim of this study was to compare the protein protection capacities of the various components of an extract of carotenoids of the actinobacterium A. agilis separated by chromatography and HPLC. More specifically, we tested all the major fractions to assess their ability to protect the enzyme alkaline phosphatase: • against denaturing via their effect of protecting proteins from denaturing (AP-heat test) (chaperone effect) • against oxidation (APox test) (Protective effect against oxidative stress).
This test is derived from a modification of the APox test for measuring the protection potential of proteins not just against oxidative stress, but against denaturing (heat stress). In fact, under the effect of heat, proteins are denatured and enzymes lose their activity. […]
• Bovine alkaline phosphatase (AP) (Sigma P0114) • Liquid substrate of alkaline phosphatase (Sigma P7998) • Heating block • Flat-bottomed 96-well plate • Plate reader at 405 nm […]
Read OD at 405 nm for 20 min at 37° C.
The protective power of a “molecule X” against denaturing (PPX) is calculated by taking the ratio of the activity of alkaline phosphatase (PA) at 55° C. […]
The activity of the enzyme for each condition is calculated by taking the mean of the optical density values measured at 405 nm for the replicates, from which values the mean value of what are known as the “blank” wells (reagents alone) is subtracted, i.e.: […]

Molecule | hyperphosphorylation of tau protein (AT100 zone, tau/MAP-2 overlap) (tau protein) | reduction in neural network density (Murine cortical neurons; glutamate poisoning alone (20 μM, 20 min)/vehicle) [%] | percentage of protection against oxidative stress (APOX test) [1] | percentage protection against heat (AP-heat test) [2] | total neural network (MAP-2 positive neural length) (Murine cortical neurons; percentage of control, glutamate 20 μM, 20 min, 1 hour pre-incubation, SBE 1 μm, BDNF 50 ng/mL) [%]
N[C@@H](CCC(=O)O)C(=O)O [Glutamate, reference compound] | +193% | 60 |  |  | 
Diglycosylated bacterioruberin [BR-DiG] |  |  | particularly pronounced | protect the protein more effectively than the BR itself | 
Monoglycosylated bacterioruberin [BR-MonoG] |  |  |  | protect the protein more effectively than the BR itself | 
B1 | +121% |  |  |  | 85
